Measured values from ChEMBL document CHEMBL3991601, “The target landscape of clinical kinase drugs” (Science, 2017).
Structures can show the parent of a compound that is named as a salt. Calls of active or inactive are those of the source. Rule as the data show it, for most assays here: actives have a measured Kd and inactives only a lower limit.

How the values were obtained:
[1] = target: T1, Serine/threonine-protein kinase NLK (Homo sapiens, UniProt Q9UBE8)
T1 sequence (Q9UBE8 whole entry): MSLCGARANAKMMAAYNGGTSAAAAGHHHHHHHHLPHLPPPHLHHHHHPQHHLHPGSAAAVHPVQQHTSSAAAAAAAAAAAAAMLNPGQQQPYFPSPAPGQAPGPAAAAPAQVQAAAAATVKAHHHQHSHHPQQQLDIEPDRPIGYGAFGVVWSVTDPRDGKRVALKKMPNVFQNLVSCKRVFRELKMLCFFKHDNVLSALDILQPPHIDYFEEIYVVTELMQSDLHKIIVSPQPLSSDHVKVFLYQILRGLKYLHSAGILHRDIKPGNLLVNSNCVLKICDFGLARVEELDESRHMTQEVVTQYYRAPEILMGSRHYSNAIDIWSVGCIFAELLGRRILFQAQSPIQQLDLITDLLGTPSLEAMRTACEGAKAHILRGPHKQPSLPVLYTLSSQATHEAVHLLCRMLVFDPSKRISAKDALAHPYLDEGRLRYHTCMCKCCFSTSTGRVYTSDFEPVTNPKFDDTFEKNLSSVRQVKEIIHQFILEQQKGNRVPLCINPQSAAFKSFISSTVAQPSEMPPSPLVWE

dCTP pyrophosphatase 1 = target: T2, dCTP pyrophosphatase 1 (Homo sapiens, UniProt Q9H773)
T2 sequence (Q9H773 whole entry): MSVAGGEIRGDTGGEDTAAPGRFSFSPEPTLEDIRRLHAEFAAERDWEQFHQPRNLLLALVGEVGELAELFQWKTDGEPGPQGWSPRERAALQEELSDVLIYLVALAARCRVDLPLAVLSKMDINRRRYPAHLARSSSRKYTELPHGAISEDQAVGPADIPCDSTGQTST

[2] = target: Calcium/calmodulin-dependent protein kinase type II subunit delta (Homo sapiens, UniProt Q13557)
[3] = target: T3, Beta-adrenergic receptor kinase 1 (Homo sapiens, UniProt P25098)
T3 sequence (P25098 whole entry): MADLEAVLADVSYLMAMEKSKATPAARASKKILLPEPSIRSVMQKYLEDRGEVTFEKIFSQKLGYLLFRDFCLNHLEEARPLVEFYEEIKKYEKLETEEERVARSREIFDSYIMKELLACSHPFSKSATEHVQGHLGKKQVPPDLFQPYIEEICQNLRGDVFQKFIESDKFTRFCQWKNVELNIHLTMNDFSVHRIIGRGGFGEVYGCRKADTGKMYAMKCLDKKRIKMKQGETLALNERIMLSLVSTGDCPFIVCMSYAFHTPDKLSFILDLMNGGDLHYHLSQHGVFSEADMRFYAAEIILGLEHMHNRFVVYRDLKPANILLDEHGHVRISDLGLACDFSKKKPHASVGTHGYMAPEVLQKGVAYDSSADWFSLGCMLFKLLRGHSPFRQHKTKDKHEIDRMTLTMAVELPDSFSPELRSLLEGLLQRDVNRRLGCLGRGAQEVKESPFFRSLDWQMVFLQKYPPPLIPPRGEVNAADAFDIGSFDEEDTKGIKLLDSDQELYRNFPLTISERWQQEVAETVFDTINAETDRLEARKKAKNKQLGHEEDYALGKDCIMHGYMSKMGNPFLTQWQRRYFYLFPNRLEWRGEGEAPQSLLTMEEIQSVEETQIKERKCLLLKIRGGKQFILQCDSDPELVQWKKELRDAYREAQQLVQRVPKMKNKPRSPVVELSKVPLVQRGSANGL

[4] = target: Dual specificity protein kinase CLK2 (Homo sapiens, UniProt P49760)
[5] = target: Glycogen synthase kinase-3 alpha (Homo sapiens, UniProt P49840)
[6] = target: T4, Serine/threonine-protein kinase STK11 (Homo sapiens, UniProt Q15831)
T4 sequence (Q15831 whole entry): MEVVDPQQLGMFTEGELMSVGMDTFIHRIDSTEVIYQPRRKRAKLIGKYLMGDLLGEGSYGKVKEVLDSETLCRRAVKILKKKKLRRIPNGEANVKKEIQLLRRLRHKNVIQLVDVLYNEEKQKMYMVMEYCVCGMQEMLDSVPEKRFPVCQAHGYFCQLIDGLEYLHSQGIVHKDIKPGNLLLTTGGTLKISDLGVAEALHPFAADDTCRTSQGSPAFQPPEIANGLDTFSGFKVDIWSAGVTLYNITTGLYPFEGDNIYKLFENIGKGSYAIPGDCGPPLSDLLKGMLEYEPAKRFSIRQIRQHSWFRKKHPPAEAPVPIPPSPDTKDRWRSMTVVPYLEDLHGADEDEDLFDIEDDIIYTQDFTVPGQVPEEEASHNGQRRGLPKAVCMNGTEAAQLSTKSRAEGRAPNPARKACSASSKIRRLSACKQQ

[7] = target: T5, Tyrosine-protein kinase Tec (Homo sapiens, UniProt P42680)
T5 sequence (P42680 whole entry): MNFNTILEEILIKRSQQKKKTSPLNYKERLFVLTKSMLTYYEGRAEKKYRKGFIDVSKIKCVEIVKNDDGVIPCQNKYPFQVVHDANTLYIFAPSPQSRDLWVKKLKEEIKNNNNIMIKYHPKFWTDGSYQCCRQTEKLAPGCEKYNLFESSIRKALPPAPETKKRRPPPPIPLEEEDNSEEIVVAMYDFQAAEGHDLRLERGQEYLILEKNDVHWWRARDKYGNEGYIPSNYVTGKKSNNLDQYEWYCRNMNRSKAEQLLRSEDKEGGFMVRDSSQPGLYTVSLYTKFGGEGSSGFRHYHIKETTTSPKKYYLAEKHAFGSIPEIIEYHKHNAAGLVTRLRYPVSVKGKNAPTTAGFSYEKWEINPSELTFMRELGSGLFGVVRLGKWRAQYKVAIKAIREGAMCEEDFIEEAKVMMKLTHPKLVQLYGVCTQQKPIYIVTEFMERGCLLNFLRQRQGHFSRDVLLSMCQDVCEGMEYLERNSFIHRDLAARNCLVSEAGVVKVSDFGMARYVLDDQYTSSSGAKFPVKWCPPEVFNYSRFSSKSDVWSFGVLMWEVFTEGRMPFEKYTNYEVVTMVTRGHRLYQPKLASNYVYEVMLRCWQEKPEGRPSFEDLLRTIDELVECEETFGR

[8] = target: Cyclin-dependent kinase 2 (Homo sapiens, UniProt P24941)
[9] = target: MAP/microtubule affinity-regulating kinase 3 (Homo sapiens, UniProt P27448)
Also: in the data inactive means no Kd found up to 30 µM.

Sequence of Glycogen synthase kinase-3 alpha (P49840 whole entry): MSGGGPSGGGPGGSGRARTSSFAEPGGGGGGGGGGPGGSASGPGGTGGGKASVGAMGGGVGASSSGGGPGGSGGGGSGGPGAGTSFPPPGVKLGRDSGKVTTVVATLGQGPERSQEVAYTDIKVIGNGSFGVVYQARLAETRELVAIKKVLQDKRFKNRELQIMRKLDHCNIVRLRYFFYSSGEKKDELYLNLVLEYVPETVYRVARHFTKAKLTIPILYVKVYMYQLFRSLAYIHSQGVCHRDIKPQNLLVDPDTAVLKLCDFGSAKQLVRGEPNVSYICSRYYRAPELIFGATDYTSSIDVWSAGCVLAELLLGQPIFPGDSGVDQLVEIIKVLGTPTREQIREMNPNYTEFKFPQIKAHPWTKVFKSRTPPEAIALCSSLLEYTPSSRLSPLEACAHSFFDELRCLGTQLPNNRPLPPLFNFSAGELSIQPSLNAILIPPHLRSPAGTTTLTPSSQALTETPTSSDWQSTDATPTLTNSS
Sequence of MAP/microtubule affinity-regulating kinase 3 (P27448 whole entry): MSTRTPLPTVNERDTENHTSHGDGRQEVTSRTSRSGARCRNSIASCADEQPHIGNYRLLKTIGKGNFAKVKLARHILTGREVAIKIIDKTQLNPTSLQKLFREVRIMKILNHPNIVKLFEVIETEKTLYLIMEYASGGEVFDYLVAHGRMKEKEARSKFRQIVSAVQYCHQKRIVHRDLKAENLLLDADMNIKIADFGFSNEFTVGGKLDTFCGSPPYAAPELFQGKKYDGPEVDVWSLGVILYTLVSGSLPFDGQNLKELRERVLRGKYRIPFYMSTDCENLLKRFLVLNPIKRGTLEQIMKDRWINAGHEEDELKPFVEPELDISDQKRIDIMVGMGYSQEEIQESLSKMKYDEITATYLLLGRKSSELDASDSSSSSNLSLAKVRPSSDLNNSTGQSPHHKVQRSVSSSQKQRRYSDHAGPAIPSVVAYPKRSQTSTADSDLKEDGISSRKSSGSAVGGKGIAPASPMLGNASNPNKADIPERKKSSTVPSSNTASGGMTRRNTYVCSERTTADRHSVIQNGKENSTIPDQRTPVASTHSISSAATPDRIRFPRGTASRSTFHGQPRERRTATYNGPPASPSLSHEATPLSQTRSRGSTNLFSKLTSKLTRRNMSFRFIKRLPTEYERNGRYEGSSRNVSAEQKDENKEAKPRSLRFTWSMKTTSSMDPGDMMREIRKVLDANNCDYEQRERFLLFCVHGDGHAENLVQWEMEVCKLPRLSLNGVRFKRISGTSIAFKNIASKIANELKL
Sequence of Dual specificity protein kinase CLK2 (P49760 whole entry): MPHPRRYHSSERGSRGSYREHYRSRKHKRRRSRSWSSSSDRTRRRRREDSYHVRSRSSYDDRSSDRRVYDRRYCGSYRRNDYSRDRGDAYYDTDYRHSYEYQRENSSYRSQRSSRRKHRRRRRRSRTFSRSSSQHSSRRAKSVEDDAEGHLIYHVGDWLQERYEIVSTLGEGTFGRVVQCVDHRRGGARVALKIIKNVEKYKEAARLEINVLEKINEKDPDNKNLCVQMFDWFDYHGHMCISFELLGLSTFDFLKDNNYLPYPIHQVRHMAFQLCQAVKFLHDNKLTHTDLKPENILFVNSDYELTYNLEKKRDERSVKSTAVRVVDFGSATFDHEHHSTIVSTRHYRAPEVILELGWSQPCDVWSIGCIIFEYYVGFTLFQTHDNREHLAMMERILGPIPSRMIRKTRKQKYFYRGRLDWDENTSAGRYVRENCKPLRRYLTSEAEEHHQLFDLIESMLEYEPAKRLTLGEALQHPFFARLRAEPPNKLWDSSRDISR
Sequence of Calcium/calmodulin-dependent protein kinase type II subunit delta (Q13557 whole entry): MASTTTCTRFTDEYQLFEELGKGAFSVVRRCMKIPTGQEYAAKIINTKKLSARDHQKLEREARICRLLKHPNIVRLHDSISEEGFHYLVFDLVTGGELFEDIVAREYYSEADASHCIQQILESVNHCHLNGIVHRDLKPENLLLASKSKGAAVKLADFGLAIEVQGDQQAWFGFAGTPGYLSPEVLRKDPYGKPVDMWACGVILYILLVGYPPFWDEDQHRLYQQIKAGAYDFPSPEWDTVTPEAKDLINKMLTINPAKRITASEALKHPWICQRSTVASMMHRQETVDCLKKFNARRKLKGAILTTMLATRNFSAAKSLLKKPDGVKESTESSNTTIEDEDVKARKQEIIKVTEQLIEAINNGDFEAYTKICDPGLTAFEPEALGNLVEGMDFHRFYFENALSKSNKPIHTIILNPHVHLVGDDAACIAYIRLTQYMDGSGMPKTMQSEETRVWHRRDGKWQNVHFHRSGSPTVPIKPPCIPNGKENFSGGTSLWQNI

| SMILES | Kd [1] | Kd (dCTP pyrophosphatase 1) | Kd [2] | Kd [3] | Kd [4] | Kd [5] | Kd [6] | Kd [7] | Kd [8] | Kd [9] |
| --- | --- | --- | --- | --- | --- | --- | --- | --- | --- | --- |
| O=C(Nc1c[nH]nc1-c1nc2cc(CN3CCOCC3)ccc2[nH]1)NC1CC1 [AT-9283] | > 30 µM (inactive) | > 30 µM (inactive) | > 30 µM (inactive) | > 30 µM (inactive) | > 30 µM (inactive) | 0.006 µM (active) | > 30 µM (inactive) | – | – | – |
| NC(=O)Nc1cc(-c2cccc(F)c2)sc1C(=O)N[C@H]1CCCNC1 [AZD-7762] | > 30 µM (inactive) | > 30 µM (inactive) | > 30 µM (inactive) | > 30 µM (inactive) | > 30 µM (inactive) | > 30 µM (inactive) | > 30 µM (inactive) | 2.61 µM (active) | > 30 µM (inactive) | – |
| CCS(=O)(=O)N1CCN(c2ccc(Nc3ncc(C(N)=O)c(NC4CC4)n3)cc2)CC1 [Cerdulatinib Hydrochloride] | > 30 µM (inactive) | > 30 µM (inactive) | > 30 µM (inactive) | > 30 µM (inactive) | > 30 µM (inactive) | > 30 µM (inactive) | > 30 µM (inactive) | > 30 µM (inactive) | – | – |
| CC(C)(C)c1nc(-c2cccc(NS(=O)(=O)c3c(F)cccc3F)c2F)c(-c2ccnc(N)n2)s1 [DABRAFENIB] | > 30 µM (inactive) | > 30 µM (inactive) | > 30 µM (inactive) | > 30 µM (inactive) | > 30 µM (inactive) | – | > 30 µM (inactive) | > 30 µM (inactive) | 0.019 µM (active) | > 30 µM (inactive) |
| Cc1nc2cc(-n3ncc(C(=O)c4cc5ccccc5[nH]4)c3N)ccc2[nH]1 [FGFR INHIBITOR DEBIO 1347] | > 30 µM (inactive) | > 30 µM (inactive) | > 30 µM (inactive) | > 30 µM (inactive) | > 30 µM (inactive) | > 30 µM (inactive) | > 30 µM (inactive) | > 30 µM (inactive) | – | > 30 µM (inactive) |
| CCn1cc(-c2ccnc3[nH]c(-c4cccc(CN(C)C)c4)cc23)c(-c2ccc(NC(=O)N(C)C)cc2)n1 [GSK-1070916] | > 30 µM (inactive) | > 30 µM (inactive) | > 30 µM (inactive) | – | > 30 µM (inactive) | > 30 µM (inactive) | > 30 µM (inactive) | > 30 µM (inactive) | > 30 µM (inactive) | – |
| O=C(Nc1cc(C(F)(F)F)cc(C(F)(F)F)c1)c1cc(Cl)ccc1O [IMD-0354] | > 30 µM (inactive) | > 30 µM (inactive) | > 30 µM (inactive) | > 30 µM (inactive) | > 30 µM (inactive) | – | > 30 µM (inactive) | > 30 µM (inactive) | > 30 µM (inactive) | > 30 µM (inactive) |
| CNC(=O)c1cccc2cc(Oc3ccnc4cc(OCC5(N)CC5)c(OC)cc34)ccc12 [LUCITANIB] | > 30 µM (inactive) | > 30 µM (inactive) | > 30 µM (inactive) | > 30 µM (inactive) | > 30 µM (inactive) | > 30 µM (inactive) | > 30 µM (inactive) | > 30 µM (inactive) | – | > 30 µM (inactive) |
| Cc1nc(Nc2n[nH]c3c2CN(C(=O)N[C@H](CN(C)C)c2ccccc2)C3(C)C)c2sccc2n1 [PF-03758309] | > 30 µM (inactive) | > 30 µM (inactive) | – | 22.5 µM (active) | > 30 µM (inactive) | 2.09 µM (active) | 0.434 µM (active) | 1.23 µM (active) | – | 0.105 µM (active) |
| Cc1cc(Nc2ncnc3ccc(NC4=NC(C)(C)CO4)cc23)ccc1Oc1ccn2ncnc2c1 [TUCATINIB] | > 30 µM (inactive) | > 30 µM (inactive) | > 30 µM (inactive) | > 30 µM (inactive) | – | > 30 µM (inactive) | > 30 µM (inactive) | > 30 µM (inactive) | > 30 µM (inactive) | > 30 µM (inactive) |
| Cn1ncc(Cl)c1-c1cc(C(=O)N[C@H](CN)Cc2ccc(F)c(F)c2)oc1Cl [UPROSERTIB] | > 30 µM (inactive) | > 30 µM (inactive) | > 30 µM (inactive) | > 30 µM (inactive) | > 30 µM (inactive) | > 30 µM (inactive) | > 30 µM (inactive) | > 30 µM (inactive) | > 30 µM (inactive) | – |
